The results in this text go back to patent US9617251B2, “Indanylaminopyridylcyclopropanecarboxylic acids, pharmaceutical compositions and uses thereof” (BOEHRINGER INGELHEIM INTERNATIONAL GMBH, priority 2015, dated 2017).

Data set [1] in a line: Chemical stability: degradation kinetics in acidic aqueous media (pH ca. 1.2), HPLC recovery. It counts as physicochemical. Particulars: pH value of ca. 1.2 (acetonitrile/0.1 M aqueous HCl 2:3), 37° C. How it is done:
Degradation kinetics is used to simulate chemical stability of compounds in the acidic part of the gastro intestinal tract. […] Their application as medical drugs to treat human diseases is therefore less restricted and troublesome.
The chemical stability of the compounds of the invention at pH value of ca. 1.2 is determined as follows:
Compound is dissolved in an HPLC vial either in a mixture of acetonitrile/0.1 M aqueous HCl (2:3; pH ca. 1.2) or in a mixture of acetonitrile/McIlvaine buffer pH 7.4 (2:3) to get a concentration of approximately 0.25 mg/ml. The vial was then transferred into an HPLC autosampler system and maintained at a temperature of 37° C. A first sample is taken and injected immediately into a standard HPLC system with a UV DAD detector. Further samples are injected after 2, 4, 6, 8 and 10 hours. Amount of degraded compound is measured by determining the recovery rate of compound [%] for each injection using an HPLC standard gradient method. Therefore the peak area of the main peak for the first injection (AUt0) is determined and set as 100%. Peak area of the main peak is determined also for the further injections (AUtn, n=2, 4, 6, 8, 10) and expressed as fraction of (AUt0)/(AUtn, n=2, 4, 6, 8, 10) [%].

Data set [2] has as its target T1, cytochrome P450 2C8-isoenzyme (Homo sapiens, UniProt P10632).
T1 construct: from tissue; host or cells: human liver microsomes
T1 sequence (P10632 1-490): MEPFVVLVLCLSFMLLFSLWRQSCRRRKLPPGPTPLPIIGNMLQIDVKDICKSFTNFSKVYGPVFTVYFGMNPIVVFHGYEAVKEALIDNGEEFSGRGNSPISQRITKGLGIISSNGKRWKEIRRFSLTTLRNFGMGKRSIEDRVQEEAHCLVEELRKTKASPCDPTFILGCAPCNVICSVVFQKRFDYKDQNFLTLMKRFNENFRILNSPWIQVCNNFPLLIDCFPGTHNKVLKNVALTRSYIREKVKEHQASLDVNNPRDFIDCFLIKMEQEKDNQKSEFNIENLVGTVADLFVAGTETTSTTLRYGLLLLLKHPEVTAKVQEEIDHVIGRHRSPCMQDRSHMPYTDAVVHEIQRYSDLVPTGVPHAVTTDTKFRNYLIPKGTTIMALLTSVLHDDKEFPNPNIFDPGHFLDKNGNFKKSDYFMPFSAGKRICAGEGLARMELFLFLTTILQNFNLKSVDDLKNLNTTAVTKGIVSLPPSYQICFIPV
Nature of the data set: Inhibition of CYP-2C8 (deethylation of amodiaquine, human liver microsomes). It counts as in vitro ADME. Conditions: CYP-2C8, human liver microsomes, amodiaquine 1 μM, 37° C. The method in brief: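 Amodiaquine deethylation (1 μM substrate) was measured at 37 °C in human liver microsomes (0.05 mg/mL), 0.1 M Tris, 5 mM MgCl2, and started with 1 mM NADPH. Desethylamodiaquine was quantified by LC-MS/MS against a d5 internal standard. IC50 came from five concentrations, typically top 10–50 μM with 1:4 dilutions, fitted by least squares to a slope-and-background model.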

Data set [3] has as its target T2, cytochrome P450 2C9-isoenzyme (Homo sapiens, UniProt P11712).
T2 construct: from tissue; host or cells: human liver microsomes
Nature of the data set: Inhibition of CYP-2C9 (hydroxylation of diclofenac, human liver microsomes). In kind it is in vitro ADME. Particulars: CYP-2C9, human liver microsomes, diclofenac 10 μM, 37° C. The method in brief: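 Human liver microsomes (0.1 mg/mL) in 0.1 M TRIS, 5 mM MgCl2, 10 μM diclofenac, 37 °C, duplicate five-point compound series; started with 1 mM NADPH, quenched by cooling and acetonitrile. Hydroxydiclofenac quantified by LC-MS/MS against 13C6 internal standard; IC50 by least-squares fit with slope and background terms.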

Another data set concerns the target human GPR40 receptor (Homo sapiens, UniProt O14842). Nature of the data set: IP1 accumulation measurements using the IPOne assay system (1321N1 cells stably expressing human GPR40 receptor). In kind it is cell-based. Particulars: 1321N1 cells expressing human GPR40, 1 h stimulation at 37° C. The method in brief: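 Cells were stimulated with compounds for 1 h at 37 °C in HEPES-buffered stimulation buffer containing 50 mM LiCl, pH 7.4. IP1 was then detected by HTRF (IP1-d2/anti-IP1 cryptate, 1 h at room temperature), and 665/615 ratios were converted using an IP1 reference curve, with pEC50 obtained by variable-slope sigmoidal fitting.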

Data set [4] is described as follows: Aqueous solubility in buffer vs acetonitrile/water (1/1), LC-UV. In kind it is physicochemical. Conditions: kinetic from dmso stock, buffer pH 2.2, 24 h shaking, 2.5% DMSO. The method in brief:
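Aliquots of 10 mM DMSO stock diluted into buffer or acetonitrile/water (1/1), shaken 24 h, filtered and quantified by LC-UV; buffer amount compared with acetonitrile/water amount. Range 0.001-0.125 mg/mL at 2.5% DMSO; ">" marks over 90% dissolved.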

Values after ≈ are worked out from the molar mass of the structure shown.

human GPR40 receptor, sequence (O14842 whole entry): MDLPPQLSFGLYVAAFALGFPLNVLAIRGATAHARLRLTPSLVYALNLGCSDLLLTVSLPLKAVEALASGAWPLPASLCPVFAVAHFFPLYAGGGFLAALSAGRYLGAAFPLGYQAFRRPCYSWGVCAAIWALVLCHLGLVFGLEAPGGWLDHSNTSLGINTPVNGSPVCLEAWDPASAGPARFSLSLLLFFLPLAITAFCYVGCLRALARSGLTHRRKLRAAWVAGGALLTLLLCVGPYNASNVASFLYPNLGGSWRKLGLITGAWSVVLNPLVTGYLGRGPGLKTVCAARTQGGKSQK
T2 sequence (P11712 whole entry): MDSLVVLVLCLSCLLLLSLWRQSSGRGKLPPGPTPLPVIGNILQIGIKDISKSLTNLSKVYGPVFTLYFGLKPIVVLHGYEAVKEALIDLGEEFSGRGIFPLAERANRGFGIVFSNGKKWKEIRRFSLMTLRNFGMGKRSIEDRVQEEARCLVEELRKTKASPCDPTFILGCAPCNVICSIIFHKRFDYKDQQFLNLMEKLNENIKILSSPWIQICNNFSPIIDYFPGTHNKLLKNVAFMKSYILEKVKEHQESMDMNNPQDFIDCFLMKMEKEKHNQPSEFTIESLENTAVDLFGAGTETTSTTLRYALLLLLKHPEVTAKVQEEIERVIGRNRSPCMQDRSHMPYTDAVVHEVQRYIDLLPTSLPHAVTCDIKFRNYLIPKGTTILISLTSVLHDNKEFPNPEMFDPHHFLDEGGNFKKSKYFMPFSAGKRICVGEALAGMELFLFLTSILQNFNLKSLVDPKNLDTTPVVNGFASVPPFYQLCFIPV

Regarding `O=C(O)[C@H]1C[C@@H]1c1ccc(N[C@@H]2CCc3c(-c4c(Cl)cccc4Cl)ccc(F)c32)nc1` [Example 50], the “Amount of degradation after 2 h” value in data set [1] is recorded as less than 1.0%. Besides, the IC50 in data set [2] worked out at 21 µM; in data set [3] it was 22 µM. The compound also showed an EC50 on human GPR40 receptor of 0.013 µM. This compound yielded a solubility at 24 h in data set [4] of 69 µg/mL (≈ 151 µM).
The like results for `COc1cc(F)c(-c2ccc(F)c3c2CC[C@H]3Nc2ccc([C@H]3C[C@@H]3C(=O)O)cn2)c(F)c1` [Example 56] were, in that order, less than 0.5%, 33 µM, 28 µM, 0.151 µM and 73 µg/mL (≈ 161 µM).
The matching figures for `Nc1cc(F)c(-c2ccc(F)c3c2CC[C@H]3Nc2ccc([C@H]3C[C@@H]3C(=O)O)cn2)c(F)c1` [Example 58]: less than 0.5%, greater than 50 µM, greater than 50 µM, 0.462 µM and 107 µg/mL (≈ 243 µM).
The matching figures for `Cc1cc(OCC2(O)CCOCC2)cc(C)c1-c1ccc(F)c2c1CC[C@H]2Nc1ccc([C@H]2C[C@@H]2C(=O)O)cn1` [Example 63]: less than 0.5%, greater than 50 µM, greater than 50 µM, 0.02 µM and 118 µg/mL (≈ 216 µM).
With `CNC(=O)c1cc(C)c(-c2ccc(F)c3c2CC[C@H]3Nc2ccc([C@H]3C[C@@H]3C(=O)O)cn2)c(C)c1` [Example 66], the “Amount of degradation after 2 h” value in data set [1] is less than 1.0%. Moreover, the IC50 in data set [2] and in data set [3] was greater than 50 µM throughout. Besides, the EC50 on human GPR40 receptor is 0.039 µM. In data set [4], this compound displayed a solubility at 24 h of 115 µg/mL (≈ 243 µM).
Consider `COc1cc(-c2cc(C)c(-c3ccc(F)c4c3CC[C@H]4Nc3ccc([C@H]4C[C@@H]4C(=O)O)cn3)c(C)c2)ccn1` [Example 72], for which, in data set [1], the “Amount of degradation after 2 h” value is on record as less than 0.5%. The IC50 in data set [2] turned out to be 8 µM; in data set [3], 18 µM. Besides, a half-maximal response at human GPR40 receptor (EC50) required 0.006 µM. Further, in data set [4], the solubility at 24 h was 101 µg/mL (≈ 193 µM).
Consider `O=C(O)[C@H]1C[C@@H]1c1ccc(N[C@@H]2CCc3c(-c4ccccc4C(F)(F)F)ccc(F)c32)nc1` [Example 74], for which the “Amount of degradation after 2 h” value in data set [1] is recorded as less than 1.0%. Further, the IC50 in data set [2] was 21 µM; in data set [3], 14 µM. The compound further came in with an EC50 on human GPR40 receptor of 0.049 µM. Further, in data set [4], the concentration in solution (solubility at 24 h) came to 82 µg/mL (≈ 180 µM).
The matching figures for `Cc1cc(C(=O)N(C)C)cc(C)c1-c1ccc(F)c2c1CC[C@H]2Nc1ccc([C@H]2C[C@@H]2C(=O)O)cn1` [Example 75]: less than 0.5%, greater than 50 µM, greater than 50 µM, 0.186 µM and 117 µg/mL (≈ 240 µM).
